Like-named read-outs stand apart in the source and are kept apart here. Non-standard residues stand in square brackets, D forms with d. Residues, ends and D or L forms follow the SMILES beside them. *: point of attachment. DOTA = O=C(O)CN1CCN(CC(=O)O)CCN(CC(=O)*)CCN(CC(=O)O)CC1; pY = N[C@@H](Cc1ccc(OP(=O)(O)O)cc1)C(=O)O; Nle = CCCC[C@H](N)C(=O)O
Key:
[1] = test system: B16-F1 tumor-bearing mice; test: Biodistribution of ^111In-labeled peptides in B16-F1 melanoma-bearing mice; type: in vivo, mouse (B6D2F1)
Procedure: (§1) About 5 × 10^5 B16-F1 cells were implanted subcutaneously to female B6D2F1 mice (C57BL/6 × DBA/2F1 hybrids; breeding pairs obtained from IFFA-CREDO, France). Seven days later, 185 kBq of ^111In-labeled ligand in 200 µL PBS/0.1% BSA were injected intravenously into the lateral tail vein of each mouse. Control mice were injected with a mixture of the tracer and 50 µg α-MSH to determine the non-specific uptake of radioligand. The animals were sacrificed 4, 24, and 48 h postinjection, dissected, and the tissues of interest collected, rinsed of excess blood, and weighed. The radioactivity emitted by each organ was measured in a γ-counter to determine the tissue uptake as percentage of the injected dose (ID) per gram of tissue. The total of injected radioactivity per animal was determined by extrapolation from the counts of a standard collected from the injection solution for each animal. Urine samples were collected at 10, 15, and 20 min and 4 h after injection and kept frozen at −80°C until use. Urine (1 vol) was mixed with methanol (2 vol) to precipitate proteins, and the supernatant was analyzed by RP-HPLC/γ-detection, as described in Ref. ([12]).
(§2) Results are expressed as means ± SEM, unless otherwise stated. The statistical evaluation of data was performed using the one- or two-way ANOVA test. When significant overall effects were obtained by ANOVA, multiple comparisons were made with the Bonferroni correction. P < 0.05 was considered statistically significant. The area under the curve (AUC) was calculated with the GraphPad Prism 6 software for the indicated period of time, using the mean tissue uptake value at each time point.

[2] = as above; type: in vivo, mouse (B6D2F1); conditions: female, iv, total radioactivity, ^111In-labeled peptide, 185 kBq i.v., mean ± SEM of three experiments, n = 5 animals each
Procedure: as §1, §2

MC1R (HBL cells) = biological target: T1, MC1R (HBL cells) (Homo sapiens, UniProt Q01726); test: Competition binding assay with [^125I]-NDP-MSH, human HBL melanoma cells
T1 construct: endogenous in cells; host or cells: human HBL melanoma cell line
Procedure: (§3) Triplicates of 100-µL volumes of B16-F1 or HBL cell suspensions adjusted to 4 × 10^6/mL were incubated in 96-well U-bottom microplates (Falcon 3077). The binding medium consisted of MEM with Earle’s salts, 0.2% BSA, and 0.3 mM 1,10-phenanthroline. This binding medium was called mouse binding medium (MBM). Triplicates of competitor peptide solution (50 µL) yielding final concentrations ranging from 1 × 10^−6 to 1 × 10^−12 M were added. [^125I]NDP-MSH (50,000 cpm) in 50 µL was finally added to each well. The plates were incubated at 15°C for 3 h for B16-F1 cells and at 37°C for 2 h for HBL cells. The incubation was stopped by covering the plates with ice for 10 min. A cell harvester was used to collect cell-bound radioactivity on filters (Packard Unifilter-96 GF/B). The collected radioactivity was counted on a TopCount scintillation counter (Packard) after addition of 50 µL Microscint-20 scintillation cocktail (Perkin Elmer). The IC50 values were calculated with the Prism 6 software (GraphPad Software Inc., San Diego CA, USA).
(§4) The binding affinity of the peptides to MC1R was assessed by competition binding assays using [^125I]-NDP-MSH as radioligand and both murine B16-F1 and human HBL cells.

MC1R (B16-F1 cells) = biological target: T2, MC1R (B16-F1 cells) (Mus musculus, UniProt Q01727); test: Competition binding assay with [^125I]-NDP-MSH, mouse B16-F1 melanoma cells
T2 construct: endogenous in cells; host or cells: mouse B16-F1 melanoma cells
Procedure: as §3, §4

[3] = ^111In-labeled peptide, 185 kBq i.v., 4 h, mean ± SEM of three experiments, n = 5 animals each
[4] = B6D2F1 (C57BL/6 × DBA/2F1 hybrids), mouse, blood, read-out: Blood uptake
[5] = B6D2F1 (C57BL/6 × DBA/2F1 hybrids), mouse, muscle, read-out: Muscle uptake
[6] = B6D2F1 (C57BL/6 × DBA/2F1 hybrids), mouse, skin, read-out: Skin uptake
[7] = B6D2F1 (C57BL/6 × DBA/2F1 hybrids), mouse, tumor, read-out: Tumor uptake
[8] = B6D2F1, mouse, bone, read-out: Bone uptake
[9] = B6D2F1, mouse, heart, read-out: Heart uptake
[10] = B6D2F1, mouse, kidney, read-out: Kidney uptake
[11] = B6D2F1, mouse, liver, read-out: Liver uptake
[12] = B6D2F1, mouse, lung, read-out: Lung uptake
[13] = B6D2F1, mouse, pancreas, read-out: Pancreas uptake
[14] = B6D2F1, mouse, small intestines, read-out: Small intestines uptake
[15] = B6D2F1, mouse, spleen, read-out: Spleen uptake
[16] = B6D2F1, mouse, stomach, read-out: Stomach uptake

T1 sequence (Q01726 whole entry): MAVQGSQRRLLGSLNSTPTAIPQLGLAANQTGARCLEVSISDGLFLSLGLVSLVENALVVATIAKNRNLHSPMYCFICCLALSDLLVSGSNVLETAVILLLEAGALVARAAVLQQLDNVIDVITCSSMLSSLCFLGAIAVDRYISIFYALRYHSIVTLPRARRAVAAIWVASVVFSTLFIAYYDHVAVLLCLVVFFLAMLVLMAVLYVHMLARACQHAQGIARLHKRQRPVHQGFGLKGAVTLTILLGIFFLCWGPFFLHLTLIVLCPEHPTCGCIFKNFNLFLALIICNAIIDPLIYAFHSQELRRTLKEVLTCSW
T2 sequence (Q01727 whole entry): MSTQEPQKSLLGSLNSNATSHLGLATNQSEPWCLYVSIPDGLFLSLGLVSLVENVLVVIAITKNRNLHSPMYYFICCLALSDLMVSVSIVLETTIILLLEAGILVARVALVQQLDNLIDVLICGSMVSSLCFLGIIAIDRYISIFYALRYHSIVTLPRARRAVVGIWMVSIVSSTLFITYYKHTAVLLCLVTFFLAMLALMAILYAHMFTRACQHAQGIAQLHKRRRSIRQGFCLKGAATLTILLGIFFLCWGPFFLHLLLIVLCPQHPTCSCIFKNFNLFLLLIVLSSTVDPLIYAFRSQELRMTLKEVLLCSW

Q: With CCCC[C@H](NC(=O)[C@H](Cc1ccc(OP(=O)(O)O)cc1)NC(=O)CNC(=O)CN1CCN(CC(=O)O)CCN(CC(=O)O)CCN(CC(=O)O)CC1)C(=O)N[C@@H](CC(=O)O)C(=O)N[C@@H](Cc1c[nH]cn1)C(=O)N[C@H](Cc1ccccc1)C(=O)N[C@@H](CCCNC(=N)N)C(=O)N[C@@H](Cc1c[nH]c2ccccc12)C(N)=O [DOTA-Phospho-MSH2-9, DOTA-Gly-Tyr(P)-Nle-Asp-His-D-Phe-Arg-Trp-NH2] ({DOTA}-G[pY][Nle]DH[dF]RW-NH2) as the molecule, how does the “Tumor-to-kidney ratio compared with other peptides (in words)” value ([1]; AUC (4–48 h) or overall comparison) read?
A: best tumor-to-kidney ratio of all linear MSH peptides so far investigated

Q: And the Kidney uptake [1, 3]?
A: 2.68 ± 0.18 %ID/g

Q: And the Tumor uptake [1, 3]?
A: 7.33 ± 0.47 %ID/g

Q: And the tissue uptake at 4 h [2, 4]?
A: 0.02 %ID/g

Q: What about the tissue uptake at 24 h [2, 4] of the same molecule?
A: 0.01 %ID/g

Q: And the tissue uptake at 48 h ([2]; B6D2F1 (C57BL/6 × DBA/2F1 hybrids), mouse, bone, read-out: Bone uptake)?
A: 0.06 ± 0.01 %ID/g

Q: What about the tissue uptake at 4 h [2, 5] of the same molecule?
A: 0.02 %ID/g

Q: What about the tissue uptake at 24 h [2, 5] of the same molecule?
A: 0.02 %ID/g

Q: And the tissue uptake at 48 h [2, 5]?
A: 0.02 %ID/g

Q: What about the tissue uptake at 4 h [2, 6] of the same molecule?
A: 0.12 ± 0.03 %ID/g

Q: What about the tissue uptake at 24 h [2, 6] of the same molecule?
A: 0.07 ± 0.02 %ID/g

Q: And the tissue uptake at 48 h [2, 6]?
A: 0.08 ± 0.02 %ID/g

Q: What about the tissue uptake at 24 h [2, 7] of the same molecule?
A: 2.92 ± 0.12 %ID/g

Q: And the tissue uptake at 48 h [2, 7]?
A: 1.21 ± 0.18 %ID/g

Q: And the tissue uptake at 4 h [2, 8]?
A: 0.08 ± 0.01 %ID/g

Q: What about the tissue uptake at 24 h [2, 8] of the same molecule?
A: 0.11 ± 0.02 %ID/g

Q: What about the tissue uptake at 4 h [2, 9] of the same molecule?
A: 0.04 %ID/g

Q: What about the tissue uptake at 24 h [2, 9] of the same molecule?
A: 0.03 %ID/g

Q: What about the tissue uptake at 48 h [2, 9] of the same molecule?
A: 0.03 %ID/g

Q: And the tissue uptake at 24 h [2, 10]?
A: 1.88 ± 0.11 %ID/g

Q: What about the tissue uptake at 48 h [2, 10] of the same molecule?
A: 1.04 ± 0.07 %ID/g

Q: And the tissue uptake at 4 h [2, 11]?
A: 0.2 ± 0.01 %ID/g

Q: And the tissue uptake at 24 h [2, 11]?
A: 0.16 ± 0.02 %ID/g

Q: What about the tissue uptake at 48 h [2, 11] of the same molecule?
A: 0.12 ± 0.01 %ID/g

Q: What about the tissue uptake at 4 h [2, 12] of the same molecule?
A: 0.07 ± 0.02 %ID/g

Q: And the tissue uptake at 24 h [2, 12]?
A: 0.04 %ID/g

Q: And the tissue uptake at 48 h [2, 12]?
A: 0.03 %ID/g

Q: And the tissue uptake at 4 h [2, 13]?
A: 0.05 ± 0.01 %ID/g

Q: What about the tissue uptake at 24 h [2, 13] of the same molecule?
A: 0.03 %ID/g

Q: And the tissue uptake at 48 h [2, 13]?
A: 0.03 %ID/g

Q: And the tissue uptake at 4 h [2, 14]?
A: 0.11 ± 0.03 %ID/g

Q: And the tissue uptake at 24 h [2, 14]?
A: 0.06 %ID/g

Q: And the tissue uptake at 48 h [2, 14]?
A: 0.06 %ID/g

Q: What about the tissue uptake at 4 h [2, 15] of the same molecule?
A: 0.11 ± 0.01 %ID/g

Q: And the tissue uptake at 24 h [2, 15]?
A: 0.1 ± 0.01 %ID/g

Q: What about the tissue uptake at 48 h [2, 15] of the same molecule?
A: 0.09 ± 0.01 %ID/g

Q: And the tissue uptake at 4 h [2, 16]?
A: 0.17 ± 0.08 %ID/g

Q: And the tissue uptake at 24 h [2, 16]?
A: 0.16 ± 0.02 %ID/g

Q: And the tissue uptake at 48 h [2, 16]?
A: 0.07 %ID/g

Q: And the IC50 (MC1R (HBL cells))?
A: 3.03 ± 0.59 nM

Q: And the IC50 (MC1R (B16-F1 cells))?
A: 2.32 ± 0.8 nM

From publication PMC5405074, “Receptor-Mediated Melanoma Targeting with Radiolabeled α-Melanocyte-Stimulating Hormone: Relevance of the Net Charge of the Ligand” (Frontiers in Endocrinology, 2017)
